Here are results for 27 compounds from patent publication US9994551B2, “Pyridazine derivatives as RORc modulators” (Genentech, Inc., priority 2015, dated 2018).

Usually IC50 stands for the concentration that gives 50% inhibition. The low end stands for greater potency in that assay, the high end for weaker potency in that assay.

This assay addresses T1, RORc ligand binding domain (Homo sapiens, UniProt P51449).
T1 construct: host or cells: E. coli
T1 sequence (P51449 269-508 limits assumed): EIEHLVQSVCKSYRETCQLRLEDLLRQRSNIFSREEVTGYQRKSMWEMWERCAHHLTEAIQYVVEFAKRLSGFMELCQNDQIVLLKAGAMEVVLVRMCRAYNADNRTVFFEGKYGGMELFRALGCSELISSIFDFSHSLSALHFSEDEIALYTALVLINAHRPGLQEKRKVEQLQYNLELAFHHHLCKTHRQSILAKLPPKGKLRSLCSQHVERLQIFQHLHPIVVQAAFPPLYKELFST
The assay can be described thus: In vitro RORc ligand binding assay (25-[3H]hydroxycholesterol displacement, filter binding).
In the case of `CC[C@@H](O[C@@]12CC[C@@H](c3cc(-c4c(F)cccc4F)nnc31)C2(C)C)C(=O)NC(CO)CO` [Compound 53, (R)-2-(((5S,8R)-3-(2,6-difluorophenyl)-9,9-dimethyl-5,6,7,8-tetrahydro-5,8-methanocinnolin-8-yl)oxy)-N-(1,3-dihydroxypropan-2-yl)butanamide], the 50% inhibitory concentration (IC50) stood at 116 nM.
For `CC[C@@H](O[C@@]12CC[C@@H](c3cc(-c4c(F)cccc4F)nnc31)C2(C)C)c1n[nH]c(CO)n1` [Compound 39, (3-((R)-1-(((5S,8R)-3-(2,6-difluorophenyl)-9,9-dimethyl-5,6,7,8-tetrahydro-5,8-methanocinnolin-8-yl)oxy)propyl)-1H-1,2,4-triazol-5-yl)methanol] the value was 827 nM; for `CC1(C)[C@H]2CC[C@]1(OCC(N)=O)c1nnc(-c3c(F)cccc3F)cc12` [Compound 47, 2-(((5S,8R)-3-(2,6-difluorophenyl)-9,9-dimethyl-5,6,7,8-tetrahydro-5,8-methanocinnolin-8-yl)oxy)acetamide], 118 nM; for `CC[C@@H](O[C@@]12CC[C@@H](c3cc(-c4c(F)cccc4F)nnc31)C2(C)C)C(=O)NC[C@@H](O)CO` [Compound 54, (R)-2-(((5S,8R)-3-(2,6-difluorophenyl)-9,9-dimethyl-5,6,7,8-tetrahydro-5,8-methanocinnolin-8-yl)oxy)-N-((R)-2,3-dihydroxypropyl)butanamide], 75.4 nM.
Next, `CC1(C)[C@H]2CC[C@]1(OC(=O)N1CCC1)c1nnc(-c3c(F)cccc3F)cc12` [Compound 10, (5S,8R)-3-(2,6-difluorophenyl)-9,9-dimethyl-5,6,7,8-tetrahydro-5,8-methanocinnolin-8-yl azetidine-1-carboxylate]: 353 nM.
For `CNC(=O)N1CCO[C@@H]([C@@]23CC[C@@H](c4cc(-c5c(F)cccc5F)nnc42)C3(C)C)C1` [Compound 74, (S)-2-((5R,8R)-3-(2,6-difluorophenyl)-9,9-dimethyl-5,6,7,8-tetrahydro-5,8-methanocinnolin-8-yl)-N-methylmorpholine-4-carboxamide] the value was 24 nM.
Consider `CC[C@H](O[C@@]12CC[C@@H](c3cc(-c4c(F)cccc4F)nnc31)C2(C)C)C(=O)NCCO` [Compound 23, (S)-2-(((5S,8R)-3-(2,6-difluorophenyl)-9,9-dimethyl-5,6,7,8-tetrahydro-5,8-methanocinnolin-8-yl)oxy)-N-(2-hydroxyethyl)butanamide], for which the half-maximal inhibitory concentration (IC50) stood at 44.5 nM.
`CC[C@@H](O[C@@]12CC[C@@H](c3cc(-c4c(F)cccc4F)nnc31)C2(C)C)c1nnc(CO)o1` [Compound 32, (5-((R)-1-(((5S,8R)-3-(2,6-difluorophenyl)-9,9-dimethyl-5,6,7,8-tetrahydro-5,8-methanocinnolin-8-yl)oxy)propyl)-1,3,4-oxadiazol-2-yl)methanol] came in with an IC50 of 5.7 nM.
In the case of `CC1(C)[C@H]2CC[C@]1(OC1(CC(N)=O)CC1)c1nnc(-c3c(F)cccc3F)cc12` [Compound 46, 2-(1-(((5S,8R)-3-(2,6-difluorophenyl)-9,9-dimethyl-5,6,7,8-tetrahydro-5,8-methanocinnolin-8-yl)oxy)cyclopropyl)acetamide], the concentration for half-maximal inhibition (IC50) stood at 74.8 nM.
For `CC1(C)[C@H]2CC[C@]1(OCc1ncccn1)c1nnc(-c3c(F)cccc3F)cc12` [Compound 13, (5S,8R)-3-(2,6-difluorophenyl)-9,9-dimethyl-8-(pyrimidin-2-ylmethoxy)-5,6,7,8-tetrahydro-5,8-methanocinnoline] the value was 515 nM.
For `CC(C)(C)OC(=O)N1CCN[C@H]([C@@]23CC[C@@H](c4cc(-c5c(F)cccc5F)nnc42)C3(C)C)C1` (single isomer, unassigned) [Compound 114, tert-butyl 3-[5-(2,6-difluorophenyl)-11,11-dimethyl-3,4-diazatricyclo[6.2.1.02,7]undeca-2,4,6-trien-1-yl]piperazine-1-carboxylate] the value was 420 nM.
On to `CC[C@@H](O[C@@]12CC[C@@H](c3cc(-c4c(F)cccc4F)nnc31)C2(C)C)C(=O)NCCS(C)(=O)=O` [Compound 102, (R)-2-(((5S,8R)-3-(2,6-difluorophenyl)-9,9-dimethyl-5,6,7,8-tetrahydro-5,8-methanocinnolin-8-yl)oxy)-N-(2-(methylsulfonyl)ethyl)butanamide], for which the concentration for half-maximal inhibition (IC50) was 61.5 nM.
Turning to `CC1(C)[C@H]2CC[C@]1([C@@H]1CN(C(N)=O)CCO1)c1nnc(-c3c(F)cccc3F)cc12` [Compound 68, (R)-2-((5R,8R)-3-(2,6-difluorophenyl)-9,9-dimethyl-5,6,7,8-tetrahydro-5,8-methanocinnolin-8-yl)morpholine-4-carboxamide], the IC50 is 56.8 nM.
In turn, `CCC[C@H](O[C@@]12CC[C@@H](c3cc(-c4c(F)cccc4F)nnc31)C2(C)C)C(N)=O` [Compound 50, (S)-2-(((5S,8R)-3-(2,6-difluorophenyl)-9,9-dimethyl-5,6,7,8-tetrahydro-5,8-methanocinnolin-8-yl)oxy)pentanamide] displayed an IC50 of 200 nM.
Consider `CC1(C)[C@H]2CC[C@]1([C@H]1CCCN(c3ccccn3)C1)c1nnc(-c3c(F)cccc3F)cc12` [Compound 163, 5-(2,6-difluorophenyl)-11,11-dimethyl-1-[1-(2-pyridyl)-3-piperidyl]-3,4-diazatricyclo[6.2.1.02,7]undeca-2,4,6-triene], for which the IC50 was 27 nM.
For `CC[C@@H](O[C@@]12CC[C@@H](c3cc(-c4c(F)cccc4F)nnc31)C2(C)C)C(=O)N1CC(CO)C1` [Compound 38, (R)-2-(((5S,8R)-3-(2,6-difluorophenyl)-9,9-dimethyl-5,6,7,8-tetrahydro-5,8-methanocinnolin-8-yl)oxy)-1-(3-(hydroxymethyl)azetidin-1-yl)butan-1-one] the value was 144 nM.
Compound `CC1(C)[C@H]2CC[C@]1([C@H]1CN(C(=O)c3ccc(Cl)nn3)CCO1)c1nnc(-c3c(F)cccc3F)cc12` [Compound 124, (6-chloropyridazin-3-yl)-[2-[5-(2,6-difluorophenyl)-11,11-dimethyl-3,4-diazatricyclo[6.2.1.02,7]undeca-2,4,6-trien-1-yl]morpholin-4-yl]methanone] returned an IC50 of 140 nM.
Next, `CC(C)(O)CNC(=O)N1CCC[C@H]([C@@]23CC[C@@H](c4cc(-c5c(F)cccc5F)nnc42)C3(C)C)C1` [Compound 150, 3-[5-(2,6-difluorophenyl)-11,11-dimethyl-3,4-diazatricyclo[6.2.1.02,7]undeca-2,4,6-trien-1-yl]-N-(2-hydroxy-2-methyl-propyl)piperidine-1-carboxamide]: 7.9 nM; `CC[C@@H](O[C@@]12CC[C@@H](c3cc(-c4c(F)cccc4F)nnc31)C2(C)C)C(=O)NCc1nnc(C)o1` [Compound 59, (R)-2-(((5S,8R)-3-(2,6-difluorophenyl)-9,9-dimethyl-5,6,7,8-tetrahydro-5,8-methanocinnolin-8-yl)oxy)-N-((5-methyl-1,3,4-oxadiazol-2-yl)methyl)butanamide]: 45.3 nM.
In the case of `CC1(C)[C@H]2CC[C@]1(OCc1cnccn1)c1nnc(-c3c(F)cccc3F)cc12` [Compound 17, (5S,8R)-3-(2,6-difluorophenyl)-9,9-dimethyl-8-(pyrazin-2-ylmethoxy)-5,6,7,8-tetrahydro-5,8-methanocinnoline], the 50% inhibitory concentration (IC50) is 133 nM.
Next, `CCNC(=O)[C@@H](CC)O[C@@]12CC[C@@H](c3cc(-c4c(F)cccc4F)nnc31)C2(C)C` [Compound 22, (R)-2-(((5S,8R)-3-(2,6-difluorophenyl)-9,9-dimethyl-5,6,7,8-tetrahydro-5,8-methanocinnolin-8-yl)oxy)-N-ethylbutanamide]: 1010 nM; `CC1(C)[C@H]2CC[C@]1([C@H]1CCCN(C(=O)c3cnccn3)C1)c1nnc(-c3c(F)cccc3F)cc12` [Compound 132, [3-[5-(2,6-difluorophenyl)-11,11-dimethyl-3,4-diazatricyclo[6.2.1.02,7]undeca-2,4,6-trien-1-yl]-1-piperidyl]-pyrazin-2-yl-methanone]: 14 nM; `CC1(C)[C@H]2CC[C@]1([C@H]1CN(Cc3ccccc3)CCO1)c1nnc(-c3c(F)cccc3F)cc12` [Compound 61, (S)-4-benzyl-2-((5R,8R)-3-(2,6-difluorophenyl)-9,9-dimethyl-5,6,7,8-tetrahydro-5,8-methanocinnolin-8-yl)morpholine]: 172 nM.
Next, `CC1(C)[C@H]2CC[C@]1([C@H]1CCCN(C(=O)c3cn[nH]c3)C1)c1nnc(-c3c(F)cccc3F)cc12` [Compound 167, [3-[5-(2,6-difluorophenyl)-11,11-dimethyl-3,4-diazatricyclo[6.2.1.02,7]undeca-2,4,6-trien-1-yl]-1-piperidyl]-(1H-pyrazol-4-yl)methanone]: 8.3 nM; `CC1(C)[C@H]2CC[C@]1([C@H]1CN(C(=O)c3c[nH]c(=O)cn3)CCO1)c1nnc(-c3c(F)cccc3F)cc12` [Compound 119, 5-[2-[5-(2,6-difluorophenyl)-11,11-dimethyl-3,4-diazatricyclo[6.2.1.02,7]undeca-2,4,6-trien-1-yl]morpholine-4-carbonyl]-1H-pyrazin-2-one]: 21 nM; `CC1(C)[C@H]2CC[C@]1(Oc1cc[nH]c(=O)c1)c1nnc(-c3c(F)cccc3F)cc12` [Compound 34, 4-(((5S,8R)-3-(2,6-difluorophenyl)-9,9-dimethyl-5,6,7,8-tetrahydro-5,8-methanocinnolin-8-yl)oxy)pyridin-2(1H)-one]: 202 nM.
Next, `CCC[C@@H](O[C@@]12CC[C@@H](c3cc(-c4c(F)cccc4F)nnc31)C2(C)C)C(N)=O` [Compound 49, (R)-2-(((5S,8R)-3-(2,6-difluorophenyl)-9,9-dimethyl-5,6,7,8-tetrahydro-5,8-methanocinnolin-8-yl)oxy)pentanamide]: 15.4 nM.
